# Test results taken from PubChem BioAssay AID1259407 (Chemical Carcinogenesis Research Information System (CCRIS), 2018).
# Activity calls are given as the source filed them. No rule for the calls is given here.
# Tested on: CCRIS mutagenicity, Ames/micronucleus/aberration tests
# Test: CCRIS mutagenicity studies
# [1] = Test System: AMES SALMONELLA TYPHIMURIUM, Strain/Indicator: TA100, Metabolic Activation: NONE, Method: STANDARD PLATE
# [2] = Test System: AMES SALMONELLA TYPHIMURIUM, Strain/Indicator: TA98, Metabolic Activation: NONE, Method: STANDARD PLATE
# [3] = Test System: AMES SALMONELLA TYPHIMURIUM, Strain/Indicator: TA98, Metabolic Activation: RAT, LIVER, S-9, AROCLOR 1254, Method: STANDARD PLATE
# [4] = Test System: AMES SALMONELLA TYPHIMURIUM, Strain/Indicator: TA100, Metabolic Activation: RAT, LIVER, S-9, AROCLOR 1254, Method: STANDARD PLATE
# [5] = Test System: AMES SALMONELLA TYPHIMURIUM, Strain/Indicator: TA1538, Metabolic Activation: NONE, Method: STANDARD PLATE
# [6] = Test System: AMES SALMONELLA TYPHIMURIUM, Strain/Indicator: TA1538, Metabolic Activation: RAT, LIVER, S-9, AROCLOR 1254, Method: STANDARD PLATE
compound,measurement,setting,value
C=C(C)C,mutagenic call,"Test System: AMES SALMONELLA TYPHIMURIUM, Strain/Indicator: TA97, Metabolic Activation: HAMSTER LIVER S-9, AROCLOR 1254 (10% OR 30%), Method: DESICCATOR",inactive; negative
same,mutagenic call,"Test System: AMES SALMONELLA TYPHIMURIUM, Strain/Indicator: TA97, Metabolic Activation: NONE, Method: DESICCATOR",inactive; negative
same,mutagenic call,"Test System: AMES SALMONELLA TYPHIMURIUM, Strain/Indicator: TA97, Metabolic Activation: RAT LIVER S-9, AROCLOR 1254 (10% OR 30%), Method: DESICCATOR",inactive; negative
same,mutagenic call,"Test System: AMES SALMONELLA TYPHIMURIUM, Strain/Indicator: TA98, Metabolic Activation: HAMSTER LIVER S-9, AROCLOR 1254 (10% OR 30%), Method: DESICCATOR",inactive; negative
same,mutagenic call,"Test System: AMES SALMONELLA TYPHIMURIUM, Strain/Indicator: TA98, Metabolic Activation: NONE",inactive; negative
same,mutagenic call,"Test System: AMES SALMONELLA TYPHIMURIUM, Strain/Indicator: TA98, Metabolic Activation: NONE, Method: DESICCATOR",inactive; negative
same,mutagenic call,"Test System: AMES SALMONELLA TYPHIMURIUM, Strain/Indicator: TA98, Metabolic Activation: NONE, Method: GAS EXPOSURE",inactive; negative
same,mutagenic call,"Test System: AMES SALMONELLA TYPHIMURIUM, Strain/Indicator: TA98, Metabolic Activation: RAT LIVER S-9, AROCLOR 1254 (10% OR 30%), Method: DESICCATOR",inactive; negative
same,mutagenic call,"Test System: AMES SALMONELLA TYPHIMURIUM, Strain/Indicator: TA98, Metabolic Activation: RAT LIVER S-9, PHENOBARBITAL AND BETA-NAPHTHOFLAVONE (40%), Method: GAS EXPOSURE",inactive; negative
same,mutagenic call,"Test System: AMES SALMONELLA TYPHIMURIUM, Strain/Indicator: TA98, Metabolic Activation: RAT, LIVER, S-9, KC 500",inactive; negative
same,mutagenic call,"Test System: AMES SALMONELLA TYPHIMURIUM, Strain/Indicator: TA100, Metabolic Activation: HAMSTER LIVER S-9, AROCLOR 1254 (10% OR 30%), Method: DESICCATOR",inactive; negative
same,mutagenic call,"Test System: AMES SALMONELLA TYPHIMURIUM, Strain/Indicator: TA100, Metabolic Activation: NONE",inactive; negative
same,mutagenic call,"Test System: AMES SALMONELLA TYPHIMURIUM, Strain/Indicator: TA100, Metabolic Activation: NONE, Method: DESICCATOR",inactive; negative
same,mutagenic call,"Test System: AMES SALMONELLA TYPHIMURIUM, Strain/Indicator: TA100, Metabolic Activation: NONE, Method: FLASK ASSAY",inactive; negative
same,mutagenic call,"Test System: AMES SALMONELLA TYPHIMURIUM, Strain/Indicator: TA100, Metabolic Activation: NONE, Method: GAS EXPOSURE",inactive; negative
same,mutagenic call,"Test System: AMES SALMONELLA TYPHIMURIUM, Strain/Indicator: TA100, Metabolic Activation: RAT LIVER S-9, AROCLOR 1254 (10% OR 30%), Method: DESICCATOR",inactive; negative
same,mutagenic call,"Test System: AMES SALMONELLA TYPHIMURIUM, Strain/Indicator: TA100, Metabolic Activation: RAT LIVER S-9, PHENOBARBITAL AND BETA-NAPHTHOFLAVONE (40%), Method: GAS EXPOSURE",inactive; negative
same,mutagenic call,"Test System: AMES SALMONELLA TYPHIMURIUM, Strain/Indicator: TA100, Metabolic Activation: RAT, LIVER, S-9, KC 500",inactive; negative
same,mutagenic call,"Test System: AMES SALMONELLA TYPHIMURIUM, Strain/Indicator: TA102, Metabolic Activation: NONE, Method: FLASK ASSAY",inactive; negative
same,mutagenic call,"Test System: AMES SALMONELLA TYPHIMURIUM, Strain/Indicator: TA1535, Metabolic Activation: HAMSTER LIVER S-9, AROCLOR 1254 (10% OR 30%), Method: DESICCATOR",inactive; negative
same,mutagenic call,"Test System: AMES SALMONELLA TYPHIMURIUM, Strain/Indicator: TA1535, Metabolic Activation: NONE",inactive; negative
same,mutagenic call,"Test System: AMES SALMONELLA TYPHIMURIUM, Strain/Indicator: TA1535, Metabolic Activation: NONE, Method: DESICCATOR",inactive; negative
same,mutagenic call,"Test System: AMES SALMONELLA TYPHIMURIUM, Strain/Indicator: TA1535, Metabolic Activation: NONE, Method: FLASK ASSAY",inactive; negative
same,mutagenic call,"Test System: AMES SALMONELLA TYPHIMURIUM, Strain/Indicator: TA1535, Metabolic Activation: NONE, Method: GAS EXPOSURE",inactive; negative
same,mutagenic call,"Test System: AMES SALMONELLA TYPHIMURIUM, Strain/Indicator: TA1535, Metabolic Activation: RAT LIVER S-9, AROCLOR 1254 (10% OR 30%), Method: DESICCATOR",inactive; negative
same,mutagenic call,"Test System: AMES SALMONELLA TYPHIMURIUM, Strain/Indicator: TA1535, Metabolic Activation: RAT LIVER S-9, PHENOBARBITAL AND BETA-NAPHTHOFLAVONE (40%), Method: GAS EXPOSURE",inactive; negative
same,mutagenic call,"Test System: AMES SALMONELLA TYPHIMURIUM, Strain/Indicator: TA1535, Metabolic Activation: RAT, LIVER, S-9, KC 500",inactive; negative
same,mutagenic call,"Test System: AMES SALMONELLA TYPHIMURIUM, Strain/Indicator: TA1537, Metabolic Activation: NONE",inactive; negative
same,mutagenic call,"Test System: AMES SALMONELLA TYPHIMURIUM, Strain/Indicator: TA1537, Metabolic Activation: NONE, Method: GAS EXPOSURE",inactive; negative
same,mutagenic call,"Test System: AMES SALMONELLA TYPHIMURIUM, Strain/Indicator: TA1537, Metabolic Activation: RAT LIVER S-9, PHENOBARBITAL AND BETA-NAPHTHOFLAVONE (40%), Method: GAS EXPOSURE",inactive; negative
same,mutagenic call,"Test System: AMES SALMONELLA TYPHIMURIUM, Strain/Indicator: TA1537, Metabolic Activation: RAT, LIVER, S-9, KC 500",inactive; negative
same,mutagenic call,"Test System: AMES SALMONELLA TYPHIMURIUM, Strain/Indicator: TA1538, Metabolic Activation: NONE",inactive; negative
same,mutagenic call,"Test System: AMES SALMONELLA TYPHIMURIUM, Strain/Indicator: TA1538, Metabolic Activation: RAT, LIVER, S-9, KC 500",inactive; negative
same,mutagenic call,"Test System: E. COLI, Strain/Indicator: WP2 UVRA, Metabolic Activation: NONE",inactive; negative
same,mutagenic call,"Test System: E. COLI, Strain/Indicator: WP2 UVRA, Metabolic Activation: RAT, LIVER, S-9, KC 500",inactive; negative
same,mutagenic call,"Test System: E.COLI, Strain/Indicator: WP2UVRA, Metabolic Activation: NONE, Method: GAS EXPOSURE",inactive; negative
same,mutagenic call,"Test System: E.COLI, Strain/Indicator: WP2UVRA, Metabolic Activation: RAT LIVER S-9, PHENOBARBITAL AND BETA-NAPHTHOFLAVONE (40%), Method: GAS EXPOSURE",inactive; negative
O=[N+]([O-])c1cccc(-c2ccc(O)c([N+](=O)[O-])c2)c1,mutagenic call,"Test System: AMES SALMONELLA TYPHIMURIUM, Strain/Indicator: TA98, Metabolic Activation: NONE, Method: PREINCUBATION",active; positive
C[C@@H](C(=O)O)N(N=[N+]=[N-])C(=O)OC(C)(C)C,mutagenic call,[1],active; positive
C=C(C)C(=O)OCC(C)(C)C,mutagenic call,[2],inactive; negative
same,mutagenic call,[3],inactive; negative
same,mutagenic call,"Test System: AMES SALMONELLA TYPHIMURIUM, Strain/Indicator: TA98, Metabolic Activation: RAT, LIVER, S-9, SODIUM PHENOBARBITAL, Method: STANDARD PLATE",inactive; negative
same,mutagenic call,[1],inactive; negative
same,mutagenic call,[4],inactive; negative
same,mutagenic call,"Test System: AMES SALMONELLA TYPHIMURIUM, Strain/Indicator: TA100, Metabolic Activation: RAT, LIVER, S-9, SODIUM PHENOBARBITAL, Method: STANDARD PLATE",inactive; negative
same,mutagenic call,"Test System: AMES SALMONELLA TYPHIMURIUM, Strain/Indicator: TA1535, Metabolic Activation: NONE, Method: STANDARD PLATE",inactive; negative
same,mutagenic call,"Test System: AMES SALMONELLA TYPHIMURIUM, Strain/Indicator: TA1535, Metabolic Activation: RAT, LIVER, S-9, AROCLOR 1254, Method: STANDARD PLATE",inactive; negative
same,mutagenic call,"Test System: AMES SALMONELLA TYPHIMURIUM, Strain/Indicator: TA1535, Metabolic Activation: RAT, LIVER, S-9, SODIUM PHENOBARBITAL, Method: STANDARD PLATE",inactive; negative
same,mutagenic call,"Test System: AMES SALMONELLA TYPHIMURIUM, Strain/Indicator: TA1537, Metabolic Activation: NONE, Method: STANDARD PLATE",inactive; negative
same,mutagenic call,"Test System: AMES SALMONELLA TYPHIMURIUM, Strain/Indicator: TA1537, Metabolic Activation: RAT, LIVER, S-9, AROCLOR 1254, Method: STANDARD PLATE",inactive; negative
same,mutagenic call,"Test System: AMES SALMONELLA TYPHIMURIUM, Strain/Indicator: TA1537, Metabolic Activation: RAT, LIVER, S-9, SODIUM PHENOBARBITAL, Method: STANDARD PLATE",inactive; negative
same,mutagenic call,[5],inactive; negative
same,mutagenic call,[6],inactive; negative
same,mutagenic call,"Test System: AMES SALMONELLA TYPHIMURIUM, Strain/Indicator: TA1538, Metabolic Activation: RAT, LIVER, S-9, SODIUM PHENOBARBITAL, Method: STANDARD PLATE",inactive; negative
Nc1ccc2c(c1)Cc1cc(N)ccc1-2,mutagenic call,[2],active; positive
same,mutagenic call,[3],active; positive
same,mutagenic call,[1],inactive; negative
same,mutagenic call,[4],active; positive
same,mutagenic call,[5],active; positive
same,mutagenic call,[6],active; positive
